Data published in publication PMC11183015, “In vivo stable ^211At-labeled prostate-specific membrane antigen-targeted tracer using a neopentyl glycol structure” (EJNMMI Radiopharmacy and Chemistry, 2024).

Key:
[1] = target: PSMA (Homo sapiens, UniProt Q04609); assay: Competitive inhibition of [125I]DCIT binding to LNCaP cells; parameters: endogenous in cells; host or cells: LNCaP (human prostate cancer cell line, RIKEN BRC); conditions: competitor [125I]DCIT, 37 °C, 1 h
Experimental: The human prostate cancer cell line LNCaP was provided by RIKEN BioResource Center (BRC) through the National BioResource Project of MEXT/AMED, Japan. LNCaP cells were cultured according to protocols prescribed by RIKEN BRC. LNCaP cells were seeded in 24-well plates (~ 1.5 × 10^5 cells/500 µL/well) coated with 0.01% poly-L-lysine (Sigma-Aldrich, Tokyo). After washing twice with assay medium (RPMI 1640 supplemented with 0.5% BSA), 250 µL of assay medium was added to each well. Each PSMA derivative and [^125I]DCIT dissolved in assay medium (250 µL) were added to the well, and the plates were then incubated at 37 °C for 1 h. After removing the assay medium, the cells were washed twice with assay medium (250 µL × 2). All cells were lysed with 1 M NaOH (500 µL), and the solution was collected. The cells were washed twice with PBS (250 µL × 2), and the solution was mixed with the previous solution. The radioactivity in the solution was measured using an auto-well gamma counter. The IC50 value was calculated by fitting with nonlinear regression using GraphPad Prism 8.4.3 (GraphPad Software, Inc., San Diego).

[2] = Biodistribution of radioactivity in normal mice; assay type: in vivo, mouse; conditions: normal ddY mice, i.v.
Experimental: Six-week-old male ddY mice were injected via the tail vein with each radiolabeled PSMA derivative. Animals were sacrificed and the organs were dissected at 10 min, 1 h, 3 h, and 6 h after injection. Metabolic cages were used for housing normal mice. The tissues of interest were excised and weighed, and the radioactivity counts in each tissue were determined using an auto-well gamma counter. Each value was expressed as the mean percent injected dose/g tissue ± SD for a group of 3–5 animals, except those for the stomach, intestine, and thyroid.

[3] = test system: LNCaP cell xenografts; assay: Biodistribution of radioactivity in tumor-bearing mice; assay type: in vivo, mouse; conditions: LNCaP tumor-bearing BALB/c-nu/nu mice
Experimental: Animal studies were conducted in accordance with the institutional guidelines approved by the Chiba University Animal Care Committee (Permit No. 4–183). Five-week-old male ddY mice and BALB/c-nu/nu mice were purchased from Japan SLC Inc. (Hamamatsu, Japan). LNCaP cells (5.0 × 10^6 cells) were suspended in 100 μL of PBS and Matrigel (BD Biosciences, Franklin Lakes, NJ, USA) in a 1:1 ratio. Tumor xenograft models were prepared via subcutaneous injection of this LNCaP cell suspension into BALB/c nude mice.
Biodistribution studies were conducted using male BALB/c-nu/nu mice bearing LNCaP cell xenografts at 1 and 3 h postinjection of [^211At]At-NpG-D-PSMA (100 µL, 37 kBq) and 1 and 6 h postinjection of ^125I-labeled PSMA derivative (100 µL, 11.1 kBq). In the blocking study, [^125I]I-NpG-D-PSMA was coinjected with 2-PMPA (50 mg/kg weight) into tumor-bearing mice via the tail vein. At 1 h postinjection, the mice were sacrificed. The tissues of interest were excised and weighed, and the radioactivity counts in each tissue were determined using an auto-well gamma counter. Each value was expressed as the mean percent injected dose/g tissue ± SD for a group of 3–5 animals, except those for the stomach, intestine, and thyroid.

Chain of PSMA (Q04609 whole entry): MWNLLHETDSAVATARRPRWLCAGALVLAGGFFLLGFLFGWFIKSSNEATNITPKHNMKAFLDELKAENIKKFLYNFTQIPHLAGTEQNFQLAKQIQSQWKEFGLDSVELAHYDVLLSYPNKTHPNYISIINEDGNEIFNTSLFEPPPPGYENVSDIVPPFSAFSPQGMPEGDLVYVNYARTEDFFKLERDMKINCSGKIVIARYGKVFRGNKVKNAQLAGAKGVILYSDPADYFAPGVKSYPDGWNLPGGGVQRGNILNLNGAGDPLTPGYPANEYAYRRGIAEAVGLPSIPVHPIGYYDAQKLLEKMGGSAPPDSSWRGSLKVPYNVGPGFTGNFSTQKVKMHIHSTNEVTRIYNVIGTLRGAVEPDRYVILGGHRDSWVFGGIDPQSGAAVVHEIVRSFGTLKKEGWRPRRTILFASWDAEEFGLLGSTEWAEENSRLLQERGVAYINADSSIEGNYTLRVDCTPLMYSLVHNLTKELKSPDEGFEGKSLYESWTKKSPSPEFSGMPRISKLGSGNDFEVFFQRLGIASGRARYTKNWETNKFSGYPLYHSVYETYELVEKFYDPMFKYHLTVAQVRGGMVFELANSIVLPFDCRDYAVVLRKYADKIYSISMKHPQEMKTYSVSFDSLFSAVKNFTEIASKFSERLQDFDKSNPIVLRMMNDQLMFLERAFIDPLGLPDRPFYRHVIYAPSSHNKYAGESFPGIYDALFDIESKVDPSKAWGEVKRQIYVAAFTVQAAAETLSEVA

O=C([O-])CN1CCN(CC(=O)[O-])CCN(CC(=O)NC[C@H]2CC[C@H](C(=O)N[C@@H](Cc3ccc4ccccc4c3)C(=O)NCCCC[C@H](NC(=O)N[C@@H](CCC(=O)O)C(=O)O)C(=O)O)CC2)CCN(CC(=O)[O-])CC1.[Ga+3] [Ga-PSMA-617, reference compound]
IC50 [1]: 7.56 nM

O=C(O)CCC(NC(=O)NC(CCCCNC(=O)C(Cc1ccc2ccccc2c1)NC(=O)C(CCC(=O)O)NC(=O)C(CCC(=O)O)NC(=O)COCC(CO)(CO)CI)C(=O)O)C(=O)O [I-NpG-D-PSMA]
IC50 [1]: 6.06 nM

O=C(O)CCC(NC(=O)NC(CCCCNC(=O)C(Cc1ccc2ccccc2c1)NC(=O)C(CCC(=O)O)NC(=O)C(CCC(=O)O)NC(=O)COCC(CO)(CO)CI)C(=O)O)C(=O)O [I-NpG-L-PSMA]
IC50 [1]: 4.04 nM

O=C([O-])CN1CCN(CC(=O)[O-])CCN(CC(=O)NC[C@H]2CC[C@H](C(=O)N[C@@H](Cc3ccc4ccccc4c3)C(=O)NCCCC[C@H](NC(=O)N[C@@H](CCC(=O)O)C(=O)O)C(=O)O)CC2)CCN(CC(=O)[O-])CC1.[67Ga+3] [[^67Ga]Ga-PSMA-617, reference compound]
Radioactivity in Blood ([2]; 10 min): 3.84 ± 0.55 %ID/g | Radioactivity in Bone ([2]; 10 min): 1.54 ± 0.19 %ID/g | Radioactivity in Heart ([2]; 10 min): 1.51 ± 0.13 %ID/g | Radioactivity in Intestine ([2]; 10 min): 1.58 ± 0.17 %ID | Radioactivity in Kidney ([2]; 10 min): 82.9 ± 12.2 %ID/g | Radioactivity in Liver ([2]; 10 min): 0.98 ± 0.13 %ID/g | Radioactivity in Lung ([2]; 10 min): 3.52 ± 0.29 %ID/g | Radioactivity in Muscle ([2]; 10 min): 1.34 ± 0.18 %ID/g | Radioactivity in Neck ([2]; 10 min): 0.03 ± 0.01 %ID | Radioactivity in Pancreas ([2]; 10 min): 1.20 ± 0.22 %ID/g | Radioactivity in Spleen ([2]; 10 min): 1.76 ± 0.68 %ID/g | Radioactivity in Stomach ([2]; 10 min): 0.32 ± 0.03 %ID | Radioactivity in Blood ([2]; 1 h): 0.26 ±0.15 %ID/g | Radioactivity in Bone ([2]; 1 h): 0.20 ± 0.09 %ID/g | Radioactivity in Intestine ([2]; 1 h): 0.83 ± 0.25 %ID | Radioactivity in Kidney ([2]; 1 h): 11.1 ± 3.22 %ID/g | Radioactivity in Liver ([2]; 1 h): 0.15 ± 0.03 %ID/g | Radioactivity in Lung ([2]; 1 h): 0.26 ± 0.12 %ID/g | Radioactivity in Muscle ([2]; 1 h): 0.15 ± 0.07 %ID/g | Radioactivity in Neck ([2]; 1 h): 0.01 ± 0.01 %ID | Radioactivity in Pancreas ([2]; 1 h): 0.11 ± 0.04 %ID/g | Radioactivity in Spleen ([2]; 1 h): 0.12 ± 0.08 %ID/g | Radioactivity in Stomach ([2]; 1 h): 0.57 ± 0.31 %ID | Radioactivity in Heart ([2]; 3 h): 0.02 ± 0.03 %ID/g | Radioactivity in Intestine ([2]; 3 h): 0.21 ± 0.09 %ID | Radioactivity in Kidney ([2]; 3 h): 1.12 ± 0.34 %ID/g | Radioactivity in Liver ([2]; 3 h): 0.06 ± 0.00 %ID/g | Radioactivity in Lung ([2]; 3 h): 0.03 ± 0.02 %ID/g | Radioactivity in Muscle ([2]; 3 h): 0.02 ± 0.02 %ID/g | Radioactivity in Neck ([2]; 3 h): 0.00 ± 0.00 %ID | Radioactivity in Stomach ([2]; 3 h): 0.03 ± 0.02 %ID | Radioactivity in Intestine ([2]; 6 h): 0.34 ± 0.17 %ID | Radioactivity in Kidney ([2]; 6 h): 1.06 ± 0.42 %ID/g | Radioactivity in Liver ([2]; 6 h): 0.05 ±0.01 %ID/g | Radioactivity in Lung ([2]; 6 h): 0.02 ± 0.02 %ID/g | Radioactivity in Muscle ([2]; 6 h): 0.02 ± 0.02 %ID/g | Radioactivity in Neck ([2]; 6 h): 0.00 ± 0.00 %ID | Radioactivity in Stomach ([2]; 6 h): 0.05 ± 0.03 %ID | Radioactivity in Feces ([2]; 6 h, metabolic cages): 0.19 ± 0.12 %ID | Radioactivity in Urine ([2]; 6 h, metabolic cages): 66.7 ± 15.8 %ID

O=C(O)CCC(NC(=O)NC(CCCCNC(=O)C(Cc1ccc2ccccc2c1)NC(=O)C(CCC(=O)O)NC(=O)C(CCC(=O)O)NC(=O)COCC(CO)(CO)C[211At])C(=O)O)C(=O)O [[^211At]At-NpG-D-PSMA]
Radioactivity in Blood ([3]; 1 h): 0.41 ± 0.10 %ID/g | Radioactivity in Bone ([3]; 1 h): 0.40 ± 0.22 %ID/g | Radioactivity in Heart ([3]; 1 h): 0.65 ± 0.22 %ID/g | Radioactivity in Intestine ([3]; 1 h): 1.94 ± 0.22 %ID | Radioactivity in Kidney ([3]; 1 h): 181 ± 13.5 %ID/g | Radioactivity in Liver ([3]; 1 h): 0.38 ± 0.08 %ID/g | Radioactivity in Lung ([3]; 1 h): 1.84 ± 0.22 %ID/g | Radioactivity in Muscle ([3]; 1 h): 0.30 ± 0.12 %ID/g | Radioactivity in Neck ([3]; 1 h): 0.04 ± 0.03 %ID | Radioactivity in Pancreas ([3]; 1 h): 0.95 ± 0.48 %ID/g | Radioactivity in Spleen ([3]; 1 h): 11.8 ± 1.26 %ID/g | Radioactivity in Stomach ([3]; 1 h): 0.37 ± 0.15 %ID | Radioactivity in Tumor ([3]; 1 h): 13.4 ± 3.17 %ID/g | Radioactivity in Blood ([3]; 3 h): 0.09 ± 0.02 %ID/g | Radioactivity in Bone ([3]; 3 h): 0.29 ± 0.18 %ID/g | Radioactivity in Heart ([3]; 3 h): 0.23 ± 0.08 %ID/g | Radioactivity in Intestine ([3]; 3 h): 1.74 ± 0.39 %ID | Radioactivity in Kidney ([3]; 3 h): 132 ± 37.8 %ID/g | Radioactivity in Liver ([3]; 3 h): 0.11 ± 0.04 %ID/g | Radioactivity in Lung ([3]; 3 h): 0.55 ± 0.06 %ID/g | Radioactivity in Muscle ([3]; 3 h): 0.13 ± 0.09 %ID/g | Radioactivity in Neck ([3]; 3 h): 0.05 ± 0.04 %ID | Radioactivity in Pancreas ([3]; 3 h): 0.27 ± 0.05 %ID/g | Radioactivity in Spleen ([3]; 3 h): 4.67 ± 3.27 %ID/g | Radioactivity in Stomach ([3]; 3 h): 0.55 ± 0.33 %ID | Radioactivity in Tumor ([3]; 3 h): 16.9 ± 8.45 %ID/g
